Results from ChEMBL document CHEMBL1147574, “Synthesis of a novel peptidic photoaffinity probe for the PTP-1B enzyme” (Bioorg Med Chem Lett, 2004).

Experiments:
[1] = Inhibitory activity of compound against phosphotyrosine phosphatase-1B
[2] = Percent adduct formed by co-valent binding to the enzyme was assessed by irradiating a solution of the photoprobe and the PTP1B enzyme with a 40W lamp

IC50 [1]	Adduct formation [2]	SMILES
0.014 µM	8%	NC(=O)[C@H](Cc1ccc(C(F)(F)P(=O)(O)O)cc1)NC(=O)[C@H](Cc1ccc(C(F)(F)P(=O)(O)O)cc1)NC(=O)[C@H](CCC(=O)O)NC(=O)c1cc(Br)cc(C2(C(F)(F)F)N=N2)c1
0.009 µM	8%	NC(=O)[C@H](Cc1ccc(C(F)(F)P(=O)(O)O)cc1)NC(=O)[C@H](Cc1ccc(C(F)(F)P(=O)(O)O)cc1)NC(=O)c1cc(I)cc(C2(C(F)(F)F)N=N2)c1
0.003 µM	5%	NC(=O)[C@H](Cc1ccc(C(F)(F)P(=O)(O)O)cc1)NC(=O)[C@H](Cc1ccc(C(F)(F)P(=O)(O)O)cc1)NC(=O)[C@H](CCC(=O)O)NCc1cc(Br)cc(C2(C(F)(F)F)N=N2)c1
0.004 µM	8%	NC(=O)[C@H](Cc1ccc(C(F)(F)P(=O)(O)O)c(Br)c1)NC(=O)[C@H](Cc1ccc(C(F)(F)P(=O)(O)O)c(Br)c1)NC(=O)c1cc(I)cc(C2(C(F)(F)F)N=N2)c1
0.012 µM	–	NC(=O)[C@H](Cc1ccc(C(F)(F)P(=O)(O)O)cc1)NC(=O)[C@H](Cc1ccc(C(F)(F)P(=O)(O)O)cc1)NC(=O)c1cc(Br)cc(C2(C(F)(F)F)N=N2)c1
1.7 µM	–	NC(=O)[C@H](Cc1ccc(C(F)(F)P(=O)(O)O)cc1)NC(=O)[C@H](Cc1ccc(C(F)(F)P(=O)(O)O)cc1)NCc1cc(Br)cc(C2(C(F)(F)F)N=N2)c1
9.5 µM	–	NC(=O)[C@H](Cc1ccc(C(F)(F)P(=O)(O)O)cc1)NC(=O)c1cc(Br)cc(C2(C(F)(F)F)N=N2)c1
0.015 µM	< 5%	NC(=O)[C@H](Cc1ccc(C(F)(F)P(=O)(O)O)cc1)NC(=O)[C@H](Cc1cc(Br)cc(C2(C(F)(F)F)N=N2)c1)NC(=O)c1cc(Br)cc(C2(C(F)(F)F)N=N2)c1
0.0003 µM	6%	NC(=O)[C@H](Cc1ccc(C(F)(F)P(=O)(O)O)c(Br)c1)NC(=O)[C@H](Cc1ccc(C(F)(F)P(=O)(O)O)c(Br)c1)NC(=O)c1cc(Br)cc(C2(C(F)(F)F)N=N2)c1
